According to US10774064B2 (Cadent Therapeutics, Inc., priority 2016, dated 2020):
Where a name gives a salt, the structure may show the parent alone.

Target: T1, small-conductance Ca2+-activated K+ channels (SK channels, subtype 2) (Homo sapiens, UniProt Q9H2S1)
T1 construct: expressed in transfected cells; host or cells: HEK293
Test: whole-cell patch-clamp of ionic current through SK2 channels in HEK293 cells (SC100)
Assay type: cell-based
Details: concentration that increases the basal current by 100%; HEK293 cells expressing SK2 channels
Procedure, shortened: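 Whole-cell patch-clamp recording of current in HEK293 cells expressing SK2 channels. SC100 is the compound concentration that increases basal current by 100%.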

Structure (SMILES) | SC100
CC(C)(C)C(=O)N1CC(Oc2cc(NC3CCC(F)(F)CC3)nc(-c3nc(C(F)(F)F)cs3)n2)C1 [Compound 322, 1-(3-((6-((4,4-difluorocyclohexyl)amino)-2-(4-(trifluoromethyl)thiazol-2-yl)pyrimidin-4-yl)oxy)azetidin-1-yl)-2,2-dimethylpropan-1-one] | ++ (++ means 200 nM-1000 nM)
Cc1cc(C)n(-c2cc(NCC(C)(C)C)cc(NC3CCC(F)(F)CC3)n2)n1 [Compound 234, N2-(4,4-difluorocyclohexyl)-6-(3,5-dimethyl-1H-pyrazol-1-yl)-N4-neopentylpyridine-2,4-diamine] | + (+ means >1 uM)
CC(C)C1CC(=O)N1Cc1cc(NC2CCC(F)(F)CC2)nc(-n2ccc(CF)n2)n1 (stereo not shown) [Compound 325, 1-((6-((4,4-difluorocyclohexyl)amino)-2-(3-(fluoromethyl)-1H-pyrazol-1-yl)pyrimidin-4-yl)methyl)-4-isopropylazetidin-2-one] | + (+ means >1 uM)
Cc1cc(C)n(-c2nc(NC3CCC(F)(F)CC3)cc(C3CC3)n2)n1 [Compound 186, 6-cyclopropyl-N-(4,4-difluorocyclohexyl)-2-(3,5-dimethyl-1H-pyrazol-1-yl)pyrimidin-4-amine] | ++ (++ means 200 nM-1000 nM)
CCC(=O)N1CC(Oc2cc(NC3CCC(F)(F)CC3)nc(-c3nc(CF)cs3)n2)C1 [Compound 341, 1-(3-((6-((4,4-difluorocyclohexyl)amino)-2-(4-(fluoromethyl)thiazol-2-yl)pyrimidin-4-yl)oxy)azetidin-1-yl)propan-1-one] | ++ (++ means 200 nM-1000 nM)
Cc1cc(C)n(-c2cc(OCc3cnn(C)n3)cc(NC3CCC(F)(F)CC3)n2)n1 [Compound 251, N-(4,4-difluorocyclohexyl)-6-(3,5-dimethyl-1H-pyrazol-1-yl)-4-((2-methyl-2H-1,2,3-triazol-4-yl)methoxy)pyridin-2-amine] | ++ (++ means 200 nM-1000 nM)
COC(=O)N1CC(OCc2cc(NC3CCC(F)(F)CC3)nc(-n3ccc(CF)n3)n2)C1 [Compound 335, methyl 3-((6-((4,4-difluorocyclohexyl)amino)-2-(3-(fluoromethyl)-1H-pyrazol-1-yl)pyrimidin-4-yl)methoxy)azetidine-1-carboxylate] | ++ (++ means 200 nM-1000 nM)
Cc1cc(C)n(-c2nc(NC3CCC(F)(F)CC3)cc(N3CCOC(CO)C3)n2)n1 (racemic) [Compound 110, (4-(6-((4,4-difluorocyclohexyl)amino)-2-(3,5-dimethyl-1H-pyrazol-1-yl)pyrimidin-4-yl)morpholin-2-yl)methanol] | ++ (++ means 200 nM-1000 nM)
Cc1cc(C)n(-c2nc(NC3CCC(F)(F)CC3)cc(N3C[C@H]4CC3CN4)n2)n1 [Compound 103, 6-((4R)-2,5-diazabicyclo [2.2.1]heptan-2-yl)-N-(4,4-difluorocyclohexyl)-2-(3,5-dimethyl-1H-pyrazol-1-yl)pyrimidin-4-amine hydrochloride salt] | + (+ means >1 uM)
Cc1cc(C)n(-c2nc(NC3CCC(F)(F)CC3)cc(N3CCOCC3)n2)n1 [Compound 187, N-(4,4-difluorocyclohexyl)-2-(3,5-dimethyl-1H-pyrazol-1-yl)-6-morpholinopyrimidin-4-amine] | ++ (++ means 200 nM-1000 nM)
Cc1cc(NC2CCC(F)(F)CC2)nc(-n2ccc(CF)n2)n1 [Compound 223] | + (+ means >1 uM)
O=C(N1CC(Oc2cc(NC3CCC(F)(F)CC3)nc(-n3ccc(C(F)F)n3)n2)C1)C(F)(F)F [Compound 299, 1-(3-((6-((4,4-difluorocyclohexyl)amino)-2-(3-(difluoromethyl)-1H-pyrazol-1-yl)pyrimidin-4-yl)oxy)azetidin-1-yl)-2,2,2-trifluoroethan-1-one] | ++ (++ means 200 nM-1000 nM)

Same assay, conditions: whole-cell patch-clamp, HEK293 cells expressing SK2 channels; concentration that increases the basal current by 100%

Structure (SMILES) | SC100 (μM)
COc1nc(-c2nc(C)cs2)nc(NC2CCC(F)(F)CC2)c1F [IN11039-058-P1, N-(4,4-difluorocyclohexyl)-5-fluoro-6-methoxy-2-(4-methylthiazol-2-yl)pyrimidin-4-amine] | ++ (++ means 200 nM-1000 nM)
Cc1ccn(-c2cc(C(O)Cc3cn(C)nn3)cc(NC3CCC(F)(F)CC3)n2)n1 (stereo not shown) [NSSy7079, 1-(2-((4,4-difluorocyclohexyl)amino)-6-(3-methyl-1H-pyrazol-1-yl)pyridin-4-yl)-2-(1-methyl-1H-1,2,3-triazol-4-yl)ethan-1-ol] | ++ (++ means 200 nM-1000 nM)
CC(=O)c1cc(NC2CCC(F)(F)CC2)nc(-c2nc(C)cs2)c1 [IN11130-053-P1, 1-(2-((4,4-difluorocyclohexyl)amino)-6-(4-methylthiazol-2-yl)pyridin-4-yl) ethan-1-one] | +++ (+++ means <200 nM)
Cc1ccn(-c2cc(OC3CCS(=O)(=O)CC3)cc(NC3CCC(F)(F)CC3)n2)n1 [IN11146-089-P1, 4-((2-((4,4-difluorocyclohexyl)amino)-6-(3-methyl-1H-pyrazol-1-yl)pyridin-4-yl)oxy)tetrahydro-2H-thiopyran 1,1-dioxide] | ++ (++ means 200 nM-1000 nM)
Cc1ccn(-c2nc(NC3CCCCC3(F)F)cc(N3CCOCC3)n2)n1 (stereo not shown) [IN11140-062-P1] | + (+ means >1 uM)
Cc1ccn(-c2nc(NC3CCC(F)(F)CC3)cc(N3CCCOCC3)n2)n1 [IN11111-097-P1] | ++ (++ means 200 nM-1000 nM)
COc1cnc(-n2ccc(C3CC3)n2)nc1NC1CCC(F)(F)CC1 [NSSy7063] | + (+ means >1 uM)
Cc1csc(-c2cnc(NC3CCC(F)(F)CC3)c(C)n2)n1 [IN11079-047-P1, N-(4,4-difluorocyclohexyl)-3-methyl-5-(4-methylthiazol-2-yl) pyrazin-2-amine] | + (+ means >1 uM)
Cc1ccn(-c2nc(NC3CCC(F)CC3)cc(OC3CN(C(=O)C(C)C)C3)n2)n1 (stereo not shown) [NSSy5765] | ++ (++ means 200 nM-1000 nM)
COC(=O)NC(C)(C)c1cc(NC2CCC(F)(F)CC2)nc(-n2ccc(C)n2)c1 [IN11063-030-P1, methyl (2-(2-((4,4-difluorocyclohexyl)amino)-6-(3-methyl-1H-pyrazol-1-yl)pyridin-4-yl)propan-2-yl)carbamate] | + (+ means >1 uM)
Cc1ccn(-c2cc(CO)cc(N(C(N)=O)C3CCC(F)(F)CC3)n2)n1 [NSSy6812, 1-(4,4-difluorocyclohexyl)-1-(4-(hydroxymethyl)-6-(3-methyl-1H-pyrazol-1-yl)pyridin-2-yl) urea] | + (+ means >1 uM)
COC(C)c1cc(N(C)C2CCC(F)(F)CC2)nc(-n2ccc(C3CC3)n2)n1 (stereo not shown) [IN11104-100-P1, 2-(3-cyclopropyl-1H-pyrazol-1-yl)-N-(4,4-difluorocyclohexyl)-6-(1-methoxyethyl)-N-methylpyrimidin-4-amine] | + (+ means >1 uM)
Cc1cccc(-c2nccc(NC3CCC(F)(F)CC3)n2)n1 [IN11130-030-P1, N-(4,4-difluorocyclohexyl)-2-(6-methylpyridin-2-yl)pyrimidin-4-amine] | + (+ means >1 uM)
Cc1csc(-c2nc(N[C@@H]3CCCC[C@H]3O)cc(N3CCOCC3)n2)n1 [IN11140-058-P1] | + (+ means >1 uM)
Cc1ccn(-c2nc(NC3CCCC(C(F)(F)F)C3)cc(C(C)O)n2)n1 (stereo not shown) [IN10880-062-P1] | + (+ means >1 uM)
Cc1cccc(-c2nc(NC3CCC(F)(F)CC3)cc(OCc3cnco3)n2)n1 [IN11130-031-P2, N-(4,4-difluorocyclohexyl)-2-(6-methylpyridin-2-yl)-6-(oxazol-5-ylmethoxy)pyrimidin-4-amine] | + (+ means >1 uM)
Cc1cc(NC2CCC(F)(F)CC2)nc(-n2ccc(=O)[nH]2)n1 [IN11079-067-P1, 1-(4-((4,4-difluorocyclohexyl)amino)-6-methylpyrimidin-2-yl)-1H-pyrazol-3-ol] | + (+ means >1 uM)
COC(=O)N1CC(Oc2cc(NC3CCC(F)(F)CC3)nc(-c3nc(C)no3)n2)C1 [NSSy5887, methyl 3-((6-((4,4-difluorocyclohexyl)amino)-2-(3-methyl-1,2,4-oxadiazol-5-yl)pyrimidin-4-yl)oxy)azetidine-1-carboxylate] | + (+ means >1 uM)
Cc1ccn(-c2nc(NC3CCC(F)(F)CC3)cc(C(C)(F)F)n2)n1 [IN10876-069-P1, N-(4,4-difluorocyclohexyl)-6-(1,1-difluoroethyl)-2-(3-methyl-1H-pyrazol-1-yl)pyrimidin-4-amine] | + (+ means >1 uM)
Cc1csc(-c2nc(NC3CCC(F)(F)CC3)cc(OCc3cnco3)n2)n1 [IN11059-047-P1] | +++ (+++ means <200 nM)
COC(=O)N1CC(Oc2cc(NC3CCC(F)(F)CC3)nc(N3CCCC3)n2)C1 [NSSy6054] | + (+ means >1 uM)
Cc1ccn(-c2nc(NC3CCC(F)(F)CC3)cc(OCCN(C)C)n2)n1 [IN10966-095-P1] | + (+ means >1 uM)
Cc1csc(-c2nc(NC3CCC(F)(F)CC3)cc(OC3CC3)n2)n1 [IN11146-033-P1, 6-cyclopropoxy-N-(4,4-difluorocyclohexyl)-2-(4-methylthiazol-2-yl)pyrimidin-4-amine] | + (+ means >1 uM)
COCCOc1cc(NC2CCC(F)(F)CC2)nc(-n2ccc(C)n2)n1 [IN10966-093-P1] | + (+ means >1 uM)
Cc1ccn(-c2nc(NC3CCC(O)CC3)cc(N3CCOCC3)n2)n1 (stereo not shown) [NSSy6486] | + (+ means >1 uM)
Cc1ccn(-c2nc(N[C@H]3CC[C@H](C(N)=O)CC3)cc(N3CCOCC3)n2)n1 [NSSy6539] | + (+ means >1 uM)
OCc1cc(NC2CCC(F)(F)CC2)nc(-n2ccc(C3CC3)n2)n1 [IN11137-074-P1, (2-(3-cyclopropyl-1H-pyrazol-1-yl)-6-((4,4-difluorocyclohexyl)amino)pyrimidin-4-yl) methanol] | ++ (++ means 200 nM-1000 nM)
Cc1csc(-c2cc(N3CC4(COC4)C3)cc(NC3CCC(F)(F)CC3)n2)n1 [NSSy5675] | +++ (+++ means <200 nM)
